The test system of data set [1] is axillary buds of tobacco Michinoku 1 (burley cultivar). Put plainly: Axillary bud growth inhibition, pot test in glasshouse, spraying after top pruning (burley cultivar). The data set is classed as in vivo, Nicotiana tabacum. Conditions: 28 days after spraying. As for the experimental part: (§1) Tobacco seedlings of Tsukuba 1 (flue-cured cultivar) and Michinoku 1 (burley cultivar) were transplanted to 1/5000a Wagner pots filled with Kureha garden nursery soil. The plants were grown in a glasshouse, and the floral axis parts were removed at the time of single-flower bloom of tobacco (top pruning).
(§2) The formulations of the inhibitors for tobacco axillary bud growth obtained in Formulation Examples 1 to 4 above were each diluted with water to predetermined concentrations, and 20 ml of the water-diluted solutions of the respective inhibitors were separately sprayed using a contact-type axillary bud inhibitor spraying instrument equipped with a spot exhaust nozzle (Examples 1 to 4 and 5 to 8). In addition, butralin (trade name: Blue Ribbon) (Comparative Examples 1 to 2 and 5 to 6) and decyl alcohol (trade name: Contact) (Comparative Examples 3 to 4 and 7 to 8) were used for tests as comparative examples in the same manner as above. In the cases of both the flue-cured cultivar and burley cultivar, one plant was planted per pot, and the tests were carried out in duplicate.
(§3) For the respective cases, states of inhibition of axillary bud growth 28 days after the spraying were investigated together with untreated groups sprayed with no inhibitor, and axillary bud growth inhibition ratios were calculated by the following equation. Axillary bud growth inhibition ratio=(fresh weight of axillary buds per plant of untreated group−fresh weight of axillary buds per plant of treated group)÷(fresh weight of axillary buds per plant of untreated group)×100 [Math. 1]
(§4) Formulation of Formulation Example 1 or Formulation Example 3 was diluted with water to predetermined concentrations and mixed with decyl alcohol (manufactured by Wako Pure Chemical Industries, Ltd.), 2-ethylhexanol (manufactured by Wako Pure Chemical Industries, Ltd.) or geraniol (manufactured by Wako Pure Chemical Industries, Ltd.) at predetermined concentrations, and the resultant was adjusted and used for tests (Examples 9 to 14 and 15 to 20). In addition, as comparative examples, the formulation of Formulation Example 1 or Formulation Example 3 diluted with water to predetermined concentrations (Comparative Examples 9 to 10 and 14 to 15) and decyl alcohol, 2-ethylhexanol or geraniol diluted with water to a predetermined concentration were used for tests (Comparative Examples 11 to 13 and 16 to 18).
(§5) The respective inhibitors were sprayed in the same manner as in Test Example 1, and states of inhibition of axillary bud growth 28 days after the spraying were investigated together with untreated groups sprayed with no inhibitor. Then, axillary bud growth inhibition ratios were calculated.

Data set [2] deals with axillary buds of tobacco Tsukuba 1 (flue-cured cultivar). Put plainly: Axillary bud growth inhibition, pot test in glasshouse, spraying after top pruning (flue-cured cultivar). It counts as in vivo, Nicotiana tabacum. The settings on record: 28 days after spraying. As for the experimental part: as §1, §2, §3, §4, §5
In data set [3] the test system is leaves (first to fourth from the top) of tobacco Michinoku 1 (burley cultivar). Kind of data set: Harmful effect of inhibitor on leaves (burley cultivar). Details: species or system Nicotiana tabacum. The settings on record: in vivo. As for the experimental part:
as §1, §2
Further, the presence or absence of the harmful effect of each inhibitor was evaluated in one of the following four categories depending on the degrees of growth inhibition, gangrene, change in color, deformation and the like of leaves (first to fourth leaves from the top). […]

The mark [4] stands for this setting: active ingredient 0.03%, 20 ml sprayed.
Setting [5] is: active ingredient 0.35%, 20 ml sprayed.
[6] abbreviates: active ingredient 2.6%, 20 ml sprayed.

As to `CSC(=O)c1c(C(F)F)nc(C(F)(F)F)c(C(=O)SC)c1CC(C)C` [Dithiopyr, dithiopyr], the “Axillary bud growth inhibition ratio (%)” value in data set [1] (active ingredient 0.005%) stood at 78%; in data set [2] (active ingredient 0.005%) it was 75%.
On to `CCCCC(CC)CO` (centres unmarked) [2-ethylhexanol], for which the “Axillary bud growth inhibition ratio (%)” value in data set [1] (active ingredient 0.5%) was 28%; in data set [2] (active ingredient 0.5%), 21%.
Consider `CC(C)=CCC/C(C)=C/CO` [Geraniol, geraniol], for which the “Axillary bud growth inhibition ratio (%)” value was found to be 32% in data set [1] (active ingredient 0.5%) and 26% in data set [2] (active ingredient 0.5%).
Turning to `CCC(C)Nc1c([N+](=O)[O-])cc(C(C)(C)C)cc1[N+](=O)[O-]` (centres unmarked) [Butralin, butralin], the “Harmful effect of inhibitor” value in data set [3] is reported as “Absent”. In addition, the “Axillary bud growth inhibition ratio (%)” value in data set [1] (setting [4]) stood at 48%; in data set [1] (setting [5]), 97%; in data set [2] (setting [4]), 44%; in data set [2] (setting [5]) it was 98%.
For `CCCCCCCCCCO` [Decyl Alcohol, decyl alcohol], the “Harmful effect of inhibitor” value in data set [3] is “Absent”. Further, the “Axillary bud growth inhibition ratio (%)” value worked out at 0% in data set [1] (setting [4]); 37% in data set [1] (active ingredient 0.5%); 94% in data set [1] (setting [6]); 0% in data set [2] (setting [4]); 30% in data set [2] (active ingredient 0.5%); 91% in data set [2] (setting [6]).
With `C#CC(C)(C)NC(=O)c1cc(Cl)cc(Cl)c1` [Propyzamide, propyzamide], the “Axillary bud growth inhibition ratio (%)” value is 72% in data set [1] (active ingredient 0.005%) and 70% in data set [2] (active ingredient 0.005%).

(Values after patent US9029293B2, “Tobacco axillary bud inhibitor and tobacco axillary bud-inhibiting method” (priority 2011, dated 2015).)
